Data published in publication PMC6407204, “Oral administration of the cannabigerol derivative VCE-003.2 promotes subventricular zone neurogenesis and protects against mutant huntingtin-induced neurodegeneration” (Translational Neurodegeneration, 2019).
Entries after “also recorded” stand apart in the source; their conditions may differ. Like-named read-outs stand apart in the source and are kept apart here.

Assays:
[1] = tested on: C-reactive protein and pentraxins 2, 3; test: Plasma biomarkers, cytokine and adipokine proteome arrays; format: in vivo, C57BL/6 N mice; conditions: pooled plasma, oral treatment, htt94Q mice
Experimental: Plasma samples from wild-type and mutant huntingtin-expressing C57BL/6 N mice were pooled (n = 6 animals per group) and analyzed for cytokine and adipokine expression. The Proteome Profiler Mouse XL Cytokine Array and the Proteome Profiler Mouse Adipokine Array (R&D Systems) were used according to the manufacturer’s protocols to obtain protein expression profiles using 100 μl plasma samples. Spot density was determined using Quick Spots image analysis software (R&D Systems).
Supplementary file 40035_2019_148_MOESM5_ESM.pdf: Additional file 5: Effect of oral VCE-003.2 on plasmatic biomarkers. Plasma samples from the indicated groups of animals (n = 6) were pooled and subjected to mouse cytokine array (ARY028; R&D Systems) and mouse adipokine array (ARY013; R&D Systems) analysis. The relative expression of the indicated biomarkers is shown. (PDF 338 kb)

[2] = tested on: osteoblast differentiation; conditions: compared with full PPARγ-agonists; cited from earlier work
[3] = tested on: S. typhimurium TA98 and S. typhimurium TA100; test: AMES reverse mutation assay, overall statement; format: cell-based; conditions: absence and presence of S9 metabolic activation
Experimental: Supplementary file 40035_2019_148_MOESM4_ESM.pdf: Additional file 4: AMES Data Summary. AMES Experimental Procedure. Approximately ten million bacteria are exposed in triplicate to VCE-003-.2 (7.8, 15.6, 31.3, 62.5, 125 and 250 μg/ml), a negative control (vehicle) and a positive control for 90 min in medium containing a low concentration of histidine (sufficient for about 2 doublings). The cultures were then diluted into indicator medium lacking histidine and dispensed into 48 wells of a 384 well plate (micro-plate format, MPF). The plate was incubated for 48 h at 37 °C, and the number of wells showing growth were counted and compared to the vehicle control. An increase in the number of colonies of at least two-fold over baseline (mean + SD of the vehicle control) and a dose response indicates a positive response. […] Where indicated, S9 fraction from the livers of Aroclor 1254-treated rats was included in the incubation at a final concentration of 4.5%. An NADPH-regenerating system is also included to ensure a steady supply of reducing equivalents. The strains used in this study were S. typhimurium TA98 (hisD3052, rfa, uvrB/pKM10 for detection of frame-shift mutations) and S. typhimurium TA100 ([…], rfa, uvrB/pKM101 for detection of base-pair substitutions). VCE-003.2 was assessed for its mutagenic potential in the AMES reverse mutation assay. […]

[4] = Pharmacokinetics in rats, plasma and brain by LC-MS/MS; format: in vivo, Sprague Dawley rats; conditions: rat; for concentration at 24 h: brain at 24 h; for AUC(0-t) / Cmax / Tmax: plasma; for bioavailability: oral 50 mg/kg vs i.v. 10 mg/kg, dose-corrected AUCt ratio
Experimental: Six-week old male Sprague Dawley rats (Janvier Labs, France) were located in the rodent area of Eurofins ADME Bioanalyses (Vergèze, France) and housed under standard conditions (12-h light/dark cycle) in groups with access to food and water ad libitum. Each animal was identified by an ear tag and examined for general health and welfare. Process, treatment and euthanasia were conducted according to the current procedures in use at Eurofins ADME Bioanalyses. Animals were treated with a single intravenous bolus of VCE-003.2 (10 mg/Kg in DMSO) or with oral VCE-003.2 (50 mg/Kg in sesame oil). At the prescribed times, blood (0.5 ml) was collected using a capillary tube and plasma frozen at − 20 °C until analysis. After 24 h, the animals were anesthetized and perfused with 20 mL of saline solution directly into the heart to extract the maximal blood sample from the brain. Plasma samples (100 μl) were mixed with 300 μl of acetonitrile and after protein precipitation, analysis of VCE-003.2 content was performed using LC-MS/MS (3 animals per each time point). For brain samples, the tissues were homogenized with an Ultra-turrax® using UHQ water (1/1, w/w). 100 μl of each homogenate was mixed with 300 μl of acetonitrile and the mixture centrifuged for 5 min at 25,000 g. Brain homogenate supernatants were directly measured by LC-MS/MS. Previous studies have shown that there are not significant differences between mice and rats in the main pharmacokinetic parameters of different cannabinoids, including CBG [18]. As the dose used here was different between i.v. and oral routes of administration, bioavailability was calculated taking into account the dose as follows: [AUCt (oral)/dose (oral)]/[AUCt(i.v.)/dose(i.v.)].

[5] = male, Sprague Dawley, in vivo, iv, single i.v. 10 mg/kg
[6] = male, Sprague Dawley, in vivo, single oral 50 mg/kg in sesame oil

Q: Which “plasma neuroinflammation biomarkers increased by htt94Q (C-reactive protein, pentraxins 2, 3)” value [1] does the source give for `CCCCCC1=C(NCC)C(=O)C(CC=C(C)CCC=C(C)C)=C(O)C1=O` [VCE-003.2, 2-(3,7-dimethyl-octa-2,6-dienyl)-6-ethylamino-3-hydroxy-5-pentyl-(1,4) benzoquinone] here?
A: Its value is “reverted”.

Q: What about the “interference with osteoblast differentiation” value [2] of the same molecule?
A: The value was “does not interfere with osteoblast differentiation”.

Q: And the “genotoxicity in AMES assay (in words)” value [3]?
A: Its value is “not genotoxic; also recorded: negative for genotoxicity”.

Q: And the concentration at 24 h [4, 5]?
A: The concentration at 24 h was 93.7 ± 37.7 ng/mL.

Q: What about the AUC(0-t) [4, 5] of the same molecule?
A: Its AUC(0-t) is 475 µg·h/mL.

Q: What about the Cmax [4, 5] of the same molecule?
A: Its Cmax is 83200 ng/mL.

Q: What about the Tmax [4, 5] of the same molecule?
A: Its Tmax is 0.08 h.

Q: And the concentration at 24 h ([4]; male, Sprague Dawley, in vivo, single oral 50 mg/kg)?
A: Its concentration at 24 h is 86.8 ± 34 ng/mL.

Q: What about the AUC(0-t) [4, 6] of the same molecule?
A: Its AUC(0-t) is 327 µg·h/mL.

Q: What about the Cmax [4, 6] of the same molecule?
A: The Cmax was 20300 ng/mL.

Q: What about the Tmax [4, 6] of the same molecule?
A: The Tmax was 8 h.

Q: What about the bioavailability ([4]; male, Sprague Dawley, in vivo, read-out: Bioavailability) of the same molecule?
A: Its bioavailability is 13.8%.

Q: And the bioavailability [4]?
A: The bioavailability was 13.77%.
